Source: patent US11427553B2, “Dihydrooxadiazinones” (Bayer Aktiengesellschaft, priority 2017, dated 2022)
pIC50: −log10 of the molar value.

What was measured:
HeLa cells = assay: Assay 1 cell proliferation measurement (CTG, 72 h), HeLa; type: cell-based, human; conditions: Homo sapiens, HeLa; Assay 1, 72 h, Cell Titer Glo; read-out: HeLa IC50 [nM] (Cervical cancer)
Summary of the method: (§1)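 Cells were plated, grown overnight at 37 °C, then treated 72 h with a 10-step 2.5-fold dilution series from 100 nM maximum final (0.3% DMSO vehicle). Viability was read by CellTiter-Glo luminescence. IC50 from a 4-parameter fit, normalised to a 0 h plate (maximum inhibition) and DMSO control (minimum inhibition).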

SK-MEL-3 cells = assay: Assay 1 cell proliferation measurement (CTG, 72 h), SK-MEL-3; type: cell-based, human; conditions: Homo sapiens, SK-MEL3; Assay 1, 72 h, Cell Titer Glo; read-out: SK-MEL-3 IC50 [nM] (melanoma)
Summary of the method: as §1

human full length PDE3B = human full length PDE3B (Homo sapiens (Human), UniProt Q13370); assay: Assay 5 PDE3B enzyme inhibition (3H-cAMP SPA); type: biochemical; conditions: Sf9 cell extract
Summary of the method: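 Sf9 cell extract expressing human full-length PDE3B, diluted for linear kinetics (<70% substrate use), in 50 mM Tris/HCl pH 7.5, 8.3 mM MgCl2, 1.7 mM EDTA. [8-3H]cAMP substrate, 60 min at room temperature; stopped with yttrium SPA beads, scintillation counting. IC50 from sigmoidal activity vs log concentration curves.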

human full length PDE3A = human full length PDE3A (Homo sapiens (Human), UniProt Q14432); assay: Assay 4 PDE3A enzyme inhibition (3H-cAMP SPA); type: biochemical; conditions: Sf9 cell extract
Summary of the method: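 Enzyme: Sf9 extract with overexpressed full-length PDE3A; substrate [8-3H]cAMP, 0.025 μCi/well; 60 min, room temperature, Tris/HCl pH 7.5 buffer with MgCl2, EDTA, BSA.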

human full length PDE3B, sequence (Q13370 whole entry): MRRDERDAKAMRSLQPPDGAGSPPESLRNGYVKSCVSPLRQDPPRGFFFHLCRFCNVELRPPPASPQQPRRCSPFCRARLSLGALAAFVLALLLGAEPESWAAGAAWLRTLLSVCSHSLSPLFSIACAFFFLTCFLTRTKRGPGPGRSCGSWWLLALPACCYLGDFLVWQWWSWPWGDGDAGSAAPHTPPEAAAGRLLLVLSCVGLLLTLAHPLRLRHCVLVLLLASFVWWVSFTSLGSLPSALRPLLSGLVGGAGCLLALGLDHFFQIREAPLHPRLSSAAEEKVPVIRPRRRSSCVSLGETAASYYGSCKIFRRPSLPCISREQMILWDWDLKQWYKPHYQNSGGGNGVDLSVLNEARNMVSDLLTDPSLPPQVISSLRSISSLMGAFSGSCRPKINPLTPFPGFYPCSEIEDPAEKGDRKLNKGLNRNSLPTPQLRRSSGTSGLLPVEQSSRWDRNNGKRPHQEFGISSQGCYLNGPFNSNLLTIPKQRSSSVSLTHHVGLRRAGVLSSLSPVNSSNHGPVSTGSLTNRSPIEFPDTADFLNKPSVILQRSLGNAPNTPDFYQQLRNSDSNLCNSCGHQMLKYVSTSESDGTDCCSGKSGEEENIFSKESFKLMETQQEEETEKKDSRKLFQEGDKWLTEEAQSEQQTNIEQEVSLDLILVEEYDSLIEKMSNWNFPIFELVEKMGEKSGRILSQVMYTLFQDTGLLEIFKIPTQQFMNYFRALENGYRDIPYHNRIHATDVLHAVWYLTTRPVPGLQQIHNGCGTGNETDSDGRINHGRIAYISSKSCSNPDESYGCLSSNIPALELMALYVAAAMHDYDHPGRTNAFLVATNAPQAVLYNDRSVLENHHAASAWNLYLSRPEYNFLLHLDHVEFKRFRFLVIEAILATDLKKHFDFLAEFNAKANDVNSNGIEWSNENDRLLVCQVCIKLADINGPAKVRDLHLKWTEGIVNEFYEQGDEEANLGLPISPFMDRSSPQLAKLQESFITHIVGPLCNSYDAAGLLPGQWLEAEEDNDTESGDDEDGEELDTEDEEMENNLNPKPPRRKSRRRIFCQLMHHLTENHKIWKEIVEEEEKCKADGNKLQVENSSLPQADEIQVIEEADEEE
human full length PDE3A, sequence (Q14432 whole entry): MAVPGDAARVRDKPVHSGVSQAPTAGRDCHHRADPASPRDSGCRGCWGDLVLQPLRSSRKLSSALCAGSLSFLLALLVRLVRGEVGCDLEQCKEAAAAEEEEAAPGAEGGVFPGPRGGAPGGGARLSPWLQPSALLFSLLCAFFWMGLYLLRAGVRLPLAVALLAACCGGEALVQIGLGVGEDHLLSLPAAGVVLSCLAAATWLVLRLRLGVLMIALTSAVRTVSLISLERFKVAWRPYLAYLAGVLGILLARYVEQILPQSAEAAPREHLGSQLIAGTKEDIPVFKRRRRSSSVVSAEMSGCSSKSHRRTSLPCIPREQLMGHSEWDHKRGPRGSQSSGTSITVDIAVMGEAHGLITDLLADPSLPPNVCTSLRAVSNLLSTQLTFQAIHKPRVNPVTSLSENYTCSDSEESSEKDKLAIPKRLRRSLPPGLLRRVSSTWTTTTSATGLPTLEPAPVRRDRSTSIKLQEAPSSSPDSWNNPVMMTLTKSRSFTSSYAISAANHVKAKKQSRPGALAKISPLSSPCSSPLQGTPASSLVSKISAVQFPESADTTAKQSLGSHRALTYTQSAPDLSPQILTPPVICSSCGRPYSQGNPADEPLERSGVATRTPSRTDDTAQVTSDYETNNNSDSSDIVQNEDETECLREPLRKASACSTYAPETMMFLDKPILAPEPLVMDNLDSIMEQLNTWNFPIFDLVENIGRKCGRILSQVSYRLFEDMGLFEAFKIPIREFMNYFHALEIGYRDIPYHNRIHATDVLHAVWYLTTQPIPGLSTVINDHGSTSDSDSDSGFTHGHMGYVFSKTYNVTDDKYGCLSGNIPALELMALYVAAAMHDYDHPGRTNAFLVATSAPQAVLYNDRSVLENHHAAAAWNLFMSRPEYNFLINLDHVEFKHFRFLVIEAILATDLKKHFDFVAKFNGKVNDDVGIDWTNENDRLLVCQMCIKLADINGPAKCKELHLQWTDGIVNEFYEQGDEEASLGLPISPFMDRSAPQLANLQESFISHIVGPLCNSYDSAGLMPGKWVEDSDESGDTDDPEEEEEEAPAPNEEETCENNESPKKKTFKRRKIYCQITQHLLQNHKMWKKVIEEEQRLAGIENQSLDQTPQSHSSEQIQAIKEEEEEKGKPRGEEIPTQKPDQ

IC50 (HeLa cells) | IC50 (SK-MEL-3 cells) | pIC50 (human full length PDE3B) | pIC50 (human full length PDE3A) | Structure (SMILES)
18 nM | 31 nM | 6.68 | 6.82 | C[C@@H]1OC(=O)NN=C1c1ccc(-c2cc(F)ccc2F)c(C(F)(F)F)c1 [Example 171, (6S)-5-[2′,5′-Difluoro-2-(trifluoromethyl)[1,1′-biphenyl]-4-yl]-6-methyl-3,6-dihydro-2H-1,3,4-oxadiazin-2-one]
3 nM | 4 nM | 7.47 | 7.37 | Cn1cc(-c2ccc(C3=NNC(=O)OC3)cc2C(F)(F)F)cn1 [Example 45, 5-[4-(1-Methyl-1H-pyrazol-4-yl)-3-(trifluoromethyl)phenyl]-3,6-dihydro-2H-1,3,4-oxadiazin-2-one]
37 nM | 17 nM | 7.24 | 7.46 | O=C1NN=C(c2ccc(-c3cccc(O)c3)c(F)c2)CO1 [Example 104, 5-(2-Fluoro-3′-hydroxy[1,1′-biphenyl]-4-yl)-3,6-dihydro-2H-1,3,4-oxadiazin-2-one]
> 100 nM | > 100 nM | 8.15 | 8.22 | CC(C)(C)OC(=O)NCCNc1ccc(C2=NNC(=O)OC2)cc1C(F)(F)F [Intermediate 67, tert-Butyl {2-[4-(2-oxo-3,6-dihydro-2H-1,3,4-oxadiazin-5-yl)-2-(trifluoromethyl)anilino]ethyl} carbamate]
9 nM | 14 nM | 6.74 | 7.13 | CC1CC(C)N1c1ccc(C2=NNC(=O)OC2)cc1C(F)(F)F (racemic) [Example 207, (rac)-5-{4-[2,4-Dimethylazetidin-1-yl]-3-(trifluoromethyl)phenyl}-3,6-dihydro-2H-1,3,4-oxadiazin-2-one]
5 nM | 5 nM | 6.80 | 7.16 | CCn1cnc(-c2ccc(C3=NNC(=O)OC3)cc2C(F)(F)F)c1 [Example 151, 5-[4-(1-Ethyl-1H-imidazol-4-yl)-3-(trifluoromethyl)phenyl]-3,6-dihydro-2H-1,3,4-oxadiazin-2-one]
4 nM | 6 nM | 7.18 | 7.47 | Cc1ccc(-c2ccc(C3=NNC(=O)O[C@H]3C)cc2C(F)(F)F)cn1 [Example 167, (6S)-6-Methyl-5-[4-(6-methylpyridin-3-yl)-3-(trifluoromethyl)phenyl]-3,6-dihydro-2H-1,3,4-oxadiazin-2-one]
27 nM | 40 nM | 6.74 | 6.72 | C[C@@H]1OC(=O)NN=C1c1ccc(-c2ccc(F)c(F)c2F)c(C(F)(F)F)c1 [Example 170, (6S)-6-Methyl-5-[2′,3′,4′-trifluoro-2-(trifluoromethyl)[1,1′-biphenyl]-4-yl]-3,6-dihydro-2H-1,3,4-oxadiazin-2-one]
21 nM | 34 nM | 7.77 | 7.57 | Cc1n[nH]cc1-c1ccc(C2=NNC(=O)OC2)cc1C(F)(F)F [Example 46, 5-[4-(3-Methyl-1H-pyrazol-4-yl)-3-(trifluoromethyl)phenyl]-3,6-dihydro-2H-1,3,4-oxadiazin-2-one]
5 nM | 10 nM | 6.10 | 6.19 | O=C1NN=C(c2ccc(CN3CCOCC3)c(C(F)(F)F)c2)CO1 [Example 197, 5-{4-[(Morpholin-4-yl)methyl]-3-(trifluoromethyl)phenyl}-3,6-dihydro-2H-1,3,4-oxadiazin-2-one]
17 nM | 41 nM | 6.71 | 6.66 | O=C1NN=C(c2ccc(-c3cccc(F)c3F)c(C(F)(F)F)c2)CO1 [Example 64, 5-[2′,3′-Difluoro-2-(trifluoromethyl)biphenyl-4-yl]-3,6-dihydro-2H-1,3,4-oxadiazin-2-one]

Continued, molecule first:

Structure (SMILES) | IC50 (HeLa cells) | IC50 (SK-MEL-3 cells) | pIC50 (human full length PDE3B) | pIC50 (human full length PDE3A)
CC(C)=Cc1ccc(C2=NNC(=O)OC2)cc1C(F)(F)F [Example 63, 5-[4-(2-Methylprop-1-en-1-yl)-3-(trifluoromethyl)phenyl]-3,6-dihydro-2H-1,3,4-oxadiazin-2-one] | 1 nM | 3 nM | 7.48 | 7.51
C[C@@H]1OC(=O)NN=C1c1ccc(Cl)c(C(F)(F)F)c1 [Intermediate 74, (6S)-5-[4-chloro-3-(trifluoromethyl)phenyl]-6-methyl-3,6-dihydro-2H-1,3,4-oxadiazin-2-one] | 6 nM | 11 nM | 7.00 | 7.47
O=C1NN=C(c2ccc(-c3cc(F)c(F)cc3F)c(F)c2)CO1 [Example 98, 5-(2,2′,4′,5′-Tetrafluoro[1,1′-biphenyl]-4-yl)-3,6-dihydro-2H-1,3,4-oxadiazin-2-one] | 5 nM | 8 nM | 6.92 | 7.00
Cc1noc(C)c1-c1ccc(C2=NNC(=O)OC2)cc1C(F)(F)F [Example 129, 5-[4-(3,5-Dimethyl-1,2-oxazol-4-yl)-3-(trifluoromethyl)phenyl]-3,6-dihydro-2H-1,3,4-oxadiazin-2-one] | > 100 nM | > 100 nM | 6.11 | 6.01
C[C@H](O)CNc1ccc(C2=NNC(=O)OC2)cc1C(F)(F)F [Example 218, 5-[4-{[(2S)-2-Hydroxypropyl]amino}-3-(trifluoromethyl)phenyl]-3,6-dihydro-2H-1,3,4-oxadiazin-2-one] | 3 nM | 4 nM | 7.05 | 7.46
COc1nc(C)ccc1-c1ccc(C2=NNC(=O)OC2)cc1C(F)(F)F [Example 53, 5-[4-(2-Methoxy-6-methylpyridin-3-yl)-3-(trifluoromethyl)phenyl]-3,6-dihydro-2H-1,3,4-oxadiazin-2-one] | 36 nM | 13000 nM | 6.41 | 6.24
O=C1NN=C(c2ccc(NC3CCCC3)c(C(F)(F)F)c2)CO1 [Example 136, 5-[4-(Cyclopentylamino)-3-(trifluoromethyl)phenyl]-3,6-dihydro-2H-1,3,4-oxadiazin-2-one] | 0.3 nM | 1 nM | 7.57 | 7.49
O=C1NN=C(c2ccc(C3=CCC(O)CC3)c(C(F)(F)F)c2)CO1 (racemic) [Example 141, (rac)-5-[4′-Hydroxy-2-(trifluoromethyl)-2′,3′,4′,5′-tetrahydro[1,1′-biphenyl]-4-yl]-3,6-dihydro-2H-1,3,4-oxadiazin-2-one] | 2 nM | 3 nM | 7.57 | 7.89
Nc1cccc(-c2ccc(C3=NNC(=O)OC3)cc2C(F)(F)F)c1F [Example 43, 5-[3′-Amino-2′-fluoro-2-(trifluoromethyl)biphenyl-4-yl]-3,6-dihydro-2H-1,3,4-oxadiazin-2-one] | 34 nM | 48 nM | 7.07 | 7.02
Nc1cc(-c2ccc(C3=NNC(=O)OC3)cc2F)ccn1 [Example 90, 5-[4-(2-Aminopyridin-4-yl)-3-fluorophenyl]-3,6-dihydro-2H-1,3,4-oxadiazin-2-one] | 16 nM | 30 nM | 7.00 | 7.37
C[C@@H]1OC(=O)NN=C1c1ccc(-c2cc(F)c(F)cc2F)c(C(F)(F)F)c1 [Example 169, (6S)-6-Methyl-5-[2′,4′,5′-trifluoro-2-(trifluoromethyl)[1,1′-biphenyl]-4-yl]-3,6-dihydro-2H-1,3,4-oxadiazin-2-one] | 20 nM | 32 nM | 6.62 | 6.74
C[C@@H]1OC(=O)NN=C1c1ccc(-c2cccc(N)c2)c(C(F)(F)F)c1 [Example 176, (6S)-5-[3′-Amino-2-(trifluoromethyl)[1,1′-biphenyl]-4-yl]-6-methyl-3,6-dihydro-2H-1,3,4-oxadiazin-2-one] | 2 nM | 4 nM | 7.46 | 7.43
Cc1ccc(-c2ccc(C3=NNC(=O)OC3)cc2F)cc1F [Example 113, 5-(2,3′-Difluoro-4′-methyl[1,1′-biphenyl]-4-yl)-3,6-dihydro-2H-1,3,4-oxadiazin-2-one] | 2 nM | 6 nM | 6.67 | 6.68
CN(C)CCN(C)c1ccc(C2=NNC(=O)OC2)cc1C(F)(F)F [Example 324, 5-[4-{[2-(dimethylamino)ethyl](methyl)amino}-3-(trifluoromethyl)phenyl]-3,6-dihydro-2H-1,3,4-oxadiazin-2-one] | > 100 nM | > 100 nM | < 6.00 | < 6.00
O=C1NN=C(c2ccc(C3=CC4CCC3C4)c(C(F)(F)F)c2)CO1 (racemic) [Example 154, (rac)-5-[4-(Bicyclo[2.2.1]hept-2-en-2-yl)-3-(trifluoromethyl)phenyl]-3,6-dihydro-2H-1,3,4-oxadiazin-2-one] | 2 nM | 4 nM | 6.92 | 7.15
C[C@@H]1OC(=O)NN=C1c1ccc(F)c(C(F)(F)F)c1 [Intermediate 75, (6S)-5-(-[(4-Fluoro-3-(trifluoromethyl)phenyl)-)]-6-methyl-3,6-dihydro-2H-1,3,4-oxadiazin-2-one] | 22 nM | 45 nM | 6.15 | 6.62
